Assay results reported in patent US20040220148A1, “5-Membered ring heterocycles as inhibitors of leucocyte adhesion and as VLA-4 antagonists” (Aventis Pharma Deutschland GmbH, priority 1996, published 2004).
Where a name gives a salt, the structure may show the parent alone.

What follows are molecules tested against T1, VLA-4 integrins on human U937 cells (interaction between VCAM-1 and VLA-4) (Homo sapiens, UniProt P05556+P13612) (assay: U937/VCAM-1 cell adhesion test (adhesion of U937 cells to hVCAM-1(1-3)-IgG)). Settings: concentration leading to 50% inhibition of adhesion.
T1 construct: the VLA-4 integrins, are offered in their natural form as surface molecules on human U937 cells; host or cells: U937 cells (VLA-4, endogenous); the partner hVCAM-1(1-3)-IgG came from the supernatant of transfected COS cells (ATCC CRL1651)
T1 sequence (P13612 34-1032): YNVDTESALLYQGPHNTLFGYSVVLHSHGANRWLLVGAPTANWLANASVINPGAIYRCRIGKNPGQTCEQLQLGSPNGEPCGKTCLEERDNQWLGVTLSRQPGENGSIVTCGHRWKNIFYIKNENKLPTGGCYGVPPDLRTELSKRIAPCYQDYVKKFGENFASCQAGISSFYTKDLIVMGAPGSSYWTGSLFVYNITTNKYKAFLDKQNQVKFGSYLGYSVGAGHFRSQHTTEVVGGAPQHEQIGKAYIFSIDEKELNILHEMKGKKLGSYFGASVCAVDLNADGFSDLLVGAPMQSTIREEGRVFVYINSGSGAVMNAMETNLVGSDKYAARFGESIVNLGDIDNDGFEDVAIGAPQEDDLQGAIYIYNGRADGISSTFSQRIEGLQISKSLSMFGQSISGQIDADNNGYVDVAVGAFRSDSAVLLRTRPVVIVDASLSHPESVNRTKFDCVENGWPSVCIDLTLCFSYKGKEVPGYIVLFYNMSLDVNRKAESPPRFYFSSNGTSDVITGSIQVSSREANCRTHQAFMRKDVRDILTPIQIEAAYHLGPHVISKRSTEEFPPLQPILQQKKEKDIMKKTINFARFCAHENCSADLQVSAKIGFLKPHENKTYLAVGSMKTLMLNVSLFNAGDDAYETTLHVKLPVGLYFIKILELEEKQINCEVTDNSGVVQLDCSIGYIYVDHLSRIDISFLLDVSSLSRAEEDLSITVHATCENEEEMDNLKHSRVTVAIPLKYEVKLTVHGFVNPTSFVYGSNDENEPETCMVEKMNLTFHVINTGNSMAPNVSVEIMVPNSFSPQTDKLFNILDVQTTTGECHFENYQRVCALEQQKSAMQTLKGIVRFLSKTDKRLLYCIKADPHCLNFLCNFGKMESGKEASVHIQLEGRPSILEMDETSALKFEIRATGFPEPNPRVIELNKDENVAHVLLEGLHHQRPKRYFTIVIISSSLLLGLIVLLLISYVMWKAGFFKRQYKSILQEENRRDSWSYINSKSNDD
T1 sequence (P05556 21-798): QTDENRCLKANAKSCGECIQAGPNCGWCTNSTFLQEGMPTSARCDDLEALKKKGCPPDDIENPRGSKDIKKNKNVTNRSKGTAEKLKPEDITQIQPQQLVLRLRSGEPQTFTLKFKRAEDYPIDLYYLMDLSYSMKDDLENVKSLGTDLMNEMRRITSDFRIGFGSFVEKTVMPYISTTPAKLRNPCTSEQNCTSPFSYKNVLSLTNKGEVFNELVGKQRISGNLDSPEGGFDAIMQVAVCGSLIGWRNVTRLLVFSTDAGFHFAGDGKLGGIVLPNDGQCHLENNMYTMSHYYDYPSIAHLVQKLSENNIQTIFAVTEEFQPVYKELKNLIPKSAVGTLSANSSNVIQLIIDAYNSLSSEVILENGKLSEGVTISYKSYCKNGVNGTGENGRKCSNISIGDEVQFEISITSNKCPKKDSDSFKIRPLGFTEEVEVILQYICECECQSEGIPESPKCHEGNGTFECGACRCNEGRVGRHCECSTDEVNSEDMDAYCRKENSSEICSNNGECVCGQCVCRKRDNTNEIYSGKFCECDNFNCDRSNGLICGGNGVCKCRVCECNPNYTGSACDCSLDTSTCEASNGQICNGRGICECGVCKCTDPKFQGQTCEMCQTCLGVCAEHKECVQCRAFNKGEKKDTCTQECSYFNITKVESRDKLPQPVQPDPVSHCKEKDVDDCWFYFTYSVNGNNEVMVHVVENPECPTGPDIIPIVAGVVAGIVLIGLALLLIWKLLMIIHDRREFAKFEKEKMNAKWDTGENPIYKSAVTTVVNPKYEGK
Assay type: cell-based
Excerpt: As a test method for the activity of the compounds of the formula I on the interaction between VCAM-1 and VLA-4, an assay which is specific for this interaction is used. The cellular binding components, i.e. the VLA-4 integrins, are offered in their natural form as surface molecules on human U937 cells (ATCC CRL 1593) which belong to the group of leucocytes. As specific binding components, recombinant soluble fusion proteins prepared by genetic engineering and consisting of the extracytoplasmic domains of human VCAM-1 and the constant region of a human immunoglobulin of the subclass IgG1 are used.
Assay for the Measurement of the Adhesion of U937 Cells (ATCC CRL 1593) to hVCAM-1 (1-3)-IgG
1. Preparation of Human VCAM-1(1-3)-IgG and Human CD4-IgG
A genetic construct for the expression of the extracellular domains of human VCAM-1 was employed, associated with the genetic sequence of the heavy chain of human immunoglobulin IgG1 (hinge, CH2 and CH3 regions), from Dr. Brian Seed, Massachusetts General Hospital, Boston, USA. The soluble fusion protein hVCAM-1(1-3)-IgG contained the three amino-terminal extracellular immunoglobulin-like domains of human VCAM-1 (Damle and Aruffo, Proc. Natl. Acad. Sci. USA 1991, 88, 6403). CD4-IgG (Zettlmeissl et al, DNA and Cell Biology 1990, 9, 347) served as a fusion protein for negative controls. The recombinant proteins were expressed as soluble proteins after DEAE/dextran-mediated DNA-transfection in COS cells (ATCC CRL1651) according to standard procedures (Ausubel et al., Current protocols in molecular biology, John Wiley & Sons, Inc., 1994).
2. Assay for Measurement of the Adhesion of U937 Cells to hVCAM-1(1-3)-IgG
2.1 96-well microtiter test plates (Nunc Maxisorb) were incubated at room temperature for 1 hour with 100 μl/well of a goat-anti-human IgG antibody solution (10 μg/ml in 50 mM tris, pH 9.5). After removing the antibody solution, washing was carried out once with PBS.
2.2 150 μl/well of a blocking buffer (1% BSA in PBS) were incubated on the plates at room temperature for 0.5 hours. After removing the blocking buffer, washing was carried out once with PBS.
2.3 100 μl per well of a cell culture supernatant of transfected COS cells were incubated on the plates at room temperature for 1.5 hours. The COS cells were transfected with a plasmid which codes for the three N-terminal immunoglobulin-like domains of VCAM-1, coupled to the Fc part of human IgG1 (hVCAM-1(1-3)-IgG). The content of hVCAM-1 (1-3)-IgG was about […]. After removing the culture supernatant, washing was carried out once with PBS.
2.4 The plates were incubated at room temperature for 20 minutes with […] of Fc receptor blocking buffer (1 mg/ml of γ-globulin, 100 mM NaCl, 100 μM MgCl2, 100 μM MnCl2, 100 μM CaCl2, 1 mg/ml BSA in 50 mM HEPES, pH 7.5). After removing the Fc receptor blocking buffer, washing was carried out once with PBS.
2.5 20 μl of binding buffer (100 mM NaCl, 100 μM MgCl2, 100 μM MgCl2, 100 μM CaCl2, 1 mg/ml BSA in 50 mM HEPES, pH 7.5), were initially introduced, the substances to be tested were added in 10 μl of binding buffer and the mixture was incubated for 20 minutes. As controls, antibodies against VCAM-1 (BBT, No. BBA6) and against VLA-4
(Immunotech, No. 0764) were used.
2.6 U937 cells were incubated in Fc receptor blocking buffer for 20 minutes and then pipetted in at a concentration of 1×10^6/ml and in an amount of 100 μl per well ([…]).
2.7 The plates were slowly immersed at an angle of 45° in stop buffer (100 mM NaCl, 100 μM MgCl2, 100 μM MnCl2, 100 μM CaCl2 in 25 mM Tris, pH 7.5) and shaken off. The process was repeated.
2.8 50 μl/well of a dye solution (16.7 μg/ml of Hoechst dye 33258, 4% formaldehyde, 0.5% Triton X-100 in PBS) were then incubated on the plates for 15 minutes.
2.9 The plates were shaken off and slowly immersed at an angle of 45° in stop buffer (100 mM NaCl, 100 μM MgCl2, 100 μM MnCl2, 100 μM CaCl2 in 25 mM Tris, pH 7.5). The process was repeated. […]

| IC50 [µM] | SMILES |
| --- | --- |
| 65 | CC1(c2ccc(C(=N)N)cc2)C(=O)N(CC(=O)N[C@@H](CC(=O)O)C(=O)N[C@H](C(=O)O)c2ccccc2)C(=O)N1Cc1c(F)c(F)c(F)c(F)c1F (mixture of isomers) [Example 6, ((R,S)-4-(4-(Amino-imino-methyl)phenyl)-3-(2,3,4,5,6-pentafluorobenzyl)-4-methyl-2,5-dioxoimidazolidin-1-yl)acetyl-L-aspartyl-L-phenylglycine] |
| 3.5 | Cc1cc(C)cc(CN2C(=O)N(CC(=O)N[C@@H](CC(=O)O)C(=O)N[C@H](C(=O)O)c3ccccc3)C(=O)C2(C)c2ccc(C(=N)N)cc2)c1 (mixture of isomers) [Example 8, ((R,S)-4-(4-(Amino-imino-methyl)phenyl)-3-(3,5-dimethylbenzyl)-4-methyl-2,5-dioxoimidazolidin-1-yl)acetyl-L-aspartyl-L-phenylglycine] |
| 0.25 | CC1(c2ccc(C(=N)N)cc2)C(=O)N(CC(=O)N[C@@H](CC(=O)O)C(=O)N[C@H](C(=O)O)c2ccccc2)C(=O)N1Cc1ccc(-c2ccccc2)cc1 (mixture of isomers) [Example 14, ((R,S)-4-(4-(Amino-imino-methyl)phenyl)-3-((4-biphenylyl)methyl)-4-methyl-2,5-dioxoimidazolidin-1-yl)acetyl-L-aspartyl-L-phenylglycine] |
| 30 | CC1(c2ccc(C(=N)N)cc2)C(=O)N(CC(=O)N[C@@H](CC(=O)O)C(=O)N[C@H](C(=O)O)c2ccccc2)C(=O)N1Cc1cc(C(F)(F)F)cc(C(F)(F)F)c1 (mixture of isomers) [Example 16, ((R,S)-4-(4-(Amino-imino-methyl)phenyl)-3-(3,5-bis(trifluoromethyl)benzyl)4-methyl-2,5-dioxoimidazolidin-1-yl)acetyl-L-aspartyl-L-phenylglycine] |
| 140 | CC1(c2ccc(C(=N)N)cc2)NC(=O)N(CC(=O)N[C@@H](CC(=O)O)C(=O)N[C@H](C(=O)O)c2ccccc2)C1=O (stereo partly drawn) [Example 1, ((R,S)-4-(4-(Amino-imino-methyl)phenyl)-4-methyl-2,5-dioxoimidazolidin-1-yl)acetyl-L-aspartyl-L-phenylglycine] |
| 15 | CN1C(=O)N(CC(=O)N[C@@H](CC(=O)O)C(=O)N[C@H](C(=O)O)c2ccccc2)C(=O)C1(C)c1ccc(C(=N)N)cc1 (stereo partly drawn) [Example 2, ((R,S)-4-(4-(Amino-imino-methyl)phenyl)-3,4-dimethyl-2,5-dioxo-imidazolidin-1-yl)acetyl-L-aspartyl-L-phenylglycine] |

More lines, now with the values behind:

| SMILES | IC50 [µM] |
| --- | --- |
| CC(C)(C)c1ccc(CN2C(=O)N(CC(=O)N[C@@H](CC(=O)O)C(=O)N[C@H](C(=O)O)c3ccccc3)C(=O)C2(C)c2ccc(C(=N)N)cc2)cc1 (mixture of isomers) [Example 5, ((R,S)-4-(4-(Amino-imino-methyl)phenyl)-3-(4-tert-butyl-benzyl)-4-methyl-2,5-dioxoimidazolidin-1-yl)acetyl-L-aspartyl-L-phenylglycine] | 15 |
| CC1(c2ccc(C(=N)N)cc2)C(=O)N(CC(=O)N[C@@H](CC(=O)O)C(=O)N[C@H](C(=O)O)c2ccccc2)C(=O)N1Cc1ccc([N+](=O)[O-])cc1 (mixture of isomers) [Example 7, ((R,S)-4-(4-(Amino-imino-methyl)phenyl)-3-(4-nitrobenzyl)-4-methyl-2,5-dioxoimidazolidin-1-yl)acetyl-L-aspartyl-L-phenylglycine] | 25 |
| CC1(c2ccc(C(=N)N)cc2)C(=O)N(CC(=O)N[C@@H](CC(=O)O)C(=O)N[C@H](C(=O)O)c2ccccc2)C(=O)N1Cc1ccccc1CS(=O)(=O)c1ccccc1 (mixture of isomers) [Example 10] | 47 |
| CC1(c2ccc(C(=N)N)cc2)C(=O)N(CC(=O)N[C@@H](CC(=O)O)C(=O)N[C@H](C(=O)O)c2ccccc2)C(=O)N1Cc1ccccc1-c1ccccc1 (mixture of isomers) [Example 11, ((R,S)-4-(4-(Amino-imino-methyl)phenyl)-3-((2-biphenylyl)methyl)-4-methyl-2,5-dioxoimidazolidin-1-yl)acetyl-L-aspartyl-L-phenylglycine] | 62 |
| Cc1ccc(CN2C(=O)N(CC(=O)N[C@@H](CC(=O)O)C(=O)N[C@H](C(=O)O)c3ccccc3)C(=O)C2(C)c2ccc(C(=N)N)cc2)cc1 (mixture of isomers) [Example 12, ((R,S)-4-(4-(Amino-imino-methyl)phenyl)-3-(4-methylbenzyl)-4-methyl-2,5-dioxoimidazolidin-1-yl)acetyl-L-aspartyl-L-phenylglycine] | 2.7 |
| CC1(c2ccc(C(=N)N)cc2)C(=O)N(CC(=O)N[C@@H](CC(=O)O)C(=O)N[C@H](C(=O)O)c2ccccc2)C(=O)N1Cc1cccc2ccccc12 (mixture of isomers) [Example 13, ((R,S)-4-(4-(Amino-imino-methyl)phenyl)-3-((1-naphthyl)methyl)-4-methyl-2,5-dioxoimidazolidin-1-yl)acetyl-L-aspartyl-L-phenylglycine] | 3.7 |
| CC1(c2ccc(C(=N)N)cc2)C(=O)N(CC(=O)N[C@@H](CC(=O)O)C(=O)N[C@H](C(=O)O)c2ccccc2)C(=O)N1Cc1ccc(C(F)(F)F)cc1 (mixture of isomers) [Example 15, ((R,S)-4-(4-(Amino-imino-methyl)phenyl)-3-(4-trifluoromethylbenzyl)-4-methyl-2,5-dioxoimidazolidin-1-yl)acetyl-L-aspartyl-L-phenylglycine] | 32 |
| Cc1c(C)c(C)c(CN2C(=O)N(CC(=O)N[C@@H](CC(=O)O)C(=O)N[C@H](C(=O)O)c3ccccc3)C(=O)C2(C)c2ccc(C(=N)N)cc2)c(C)c1C (mixture of isomers) [Example 17, ((R,S)-4-(4-(Amino-imino-methyl)phenyl)-3-(pentamethylbenzyl)-4-methyl-2,5-dioxoimidazolidin-1-yl)acetyl-L-aspartyl-L-phenylglycine] | 79 |
| CN(C(=O)CN1C(=O)N(Cc2ccccc2)C(C)(c2ccc(C(=N)N)cc2)C1=O)[C@@H](CC(=O)O)C(=O)N[C@H](C(=O)O)c1ccccc1 (mixture of isomers) [Example 19, ((R,S)-4-(4-(Amino-imino-methyl)phenyl)-3-benzyl-4-methyl-2,5-dioxo-imidazolidin-1-yl)acetyl-L-N-methyl-aspartyl-L-phenylglycine] | 0.2 |
| COC(=O)[C@@H](NC(=O)[C@H](CC(=O)O)NC(=O)CN1C(=O)N(Cc2ccccc2)C(C)(c2ccc(C(=N)N)cc2)C1=O)c1ccccc1 (mixture of isomers) [Example 25, ((R,S)-4-(4-(Amino-imino-methyl)phenyl)-3-benzyl-4-methyl-2,5-dioxo-imidazolidin-1-yl)acetyl-L-aspartyl-L-phenylglycine methyl ester] | 22 |
| CC1(c2ccc(C(=N)N)cc2)C(=O)N(CC(=O)NCCC(=O)O)C(=O)N1Cc1ccccc1 (racemic) [Example 34, 3-(((R,S)-4-(4-(Amino-imino-methyl)phenyl)-3-benzyl-4-methyl-2,5-dioxoimidazolidin-1-yl)acetylamino)propionic acid hydrochloride] | 175 |
